The values below come from patent US20170274087A1, “SACCHARIDE ANALOGS AND AGENTS FOR THE DIAGNOSIS AND THERAPY OF BACTERIAL INFECTIONS” (Emory University, priority 2014, published 2017).

The subject of one series is maltase. As to the kind of experiment: in vitro. As to the method:
The stability of thiomaltose and maltose was investigated in the presence of maltase. Thiomaltose and maltose were incubated with 10 units of maltase, which is an enzyme that breaks maltose into two glucose molecules. The hydrolysis kinetics of thiomaltose and maltose was determined by quantifying the glucose released from thiomaltose or maltose hydrolysis.

Another series has as its system P. aeruginosa. The series can be described thus: P. aeruginosa growth inhibition (absorption, OD600). The format is cell-based. The following applies: up to a 10 μM concentration; multidrug-resistant clinical isolate. As for the experimental part:
TM-R and free radezolid were incubated with P. aeruginosa for 24 hours. OD600 were used to determine the bacteria growth.
P. aeruginosa (5×10^8 CFUs) were incubated with various concentrations of either radezolid or TMR and the MIC was determined via absorption measurements. The P. aeruginosa strain used in this experiment was a clinical isolate, resistant to multiple antibiotics, obtained from a blood stream infection.

The next series has as its system Giardia. As to the kind of experiment: Giardia growth assay in 96 well plates (coulter counter). The format is cell-based. The following applies: 48 hours, 37° C., DMSO at or below 0.1%. As for the experimental part:
Methods for evaluating EC50 measurements in Giardia were established. Giardia cells were cultured in 96 well microtiter plates in anaerobic BD Bio-Bags (Becton Dickinson). Growth was assayed with a MoxiZ coulter counter (Orflo Technologies). The TMM and metroinadazole stock solutions contained DMSO to improve solubility. Giardia growth in 96 well plates with various volumes of TYDK media 10 and DMSO concentrations were evaluated over several days at 37° C. Cells grew more consistently in higher volumes of media and noted reduced growth in DMSO concentrations above 0.25%. […] Growth was evaluated after 48 hours.

In the series with maltase, `OC[C@H]1O[C@H](O[C@H]2[C@H](O)[C@@H](O)[C@H](O)O[C@@H]2CO)[C@H](O)[C@@H](O)[C@@H]1O` [maltose] registered a half-life of around 30 min. Also, the “maltase hydrolysis (in words)” value in the series on maltase (3 hours, 10 units of maltase) is reported as “hydrolyzed completely”. On to `CC(=O)NC[C@H]1CN(c2ccc(-c3ccc(CNCc4cnn[nH]4)cc3)c(F)c2)C(=O)O1` [radezolid], for which the “efficacy against P. aeruginosa growth (in words)” value with P. aeruginosa is on record as “no efficacy”. In the series with Giardia, `Cc1ncc([N+](=O)[O-])n1CCO` [metronidazole] showed an EC50 of 1700 nM. On to `OCC1OC(SC2C(CO)OC(O)C(O)C2O)C(O)C(O)C1O` (stereo not drawn) [thiomaltose], for which, in the series on maltase (3 hours, 10 units of maltase), the hydrolyzed by maltase result was “less than 1%” and the “maltase hydrolysis (in words)” value is recorded as “negligible hydrolysis”.

The term half-life denotes the time in which the quantity being followed falls by half. What is called EC50 is the concentration giving half of the maximal effect. Read a high EC50 as a less potent agent.
